Test results: the NIST ThermoML archive (doi:10.1021/acs.jced.8b00201)
± gives the expanded uncertainty stated by the source.

Columns and labels:
[1] = 100 kPa, Liquid; for viscosity: Concentric cylinders viscometry; for mass density: Vibrating tube method
[2] = xn = mol fraction of the nth substance listed; conditions: 100 kPa, Liquid; for viscosity: Concentric cylinders viscometry; for mass density: Vibrating tube method

| Compound | viscosity ([1]; 293.15 K) [mPa·s] | mass density ([1]; 293.15 K) [kg/m3] | viscosity ([1]; 298.15 K) [mPa·s] | mass density ([1]; 298.15 K) [kg/m3] | viscosity ([1]; 303.15 K) [mPa·s] | mass density ([1]; 303.15 K) [kg/m3] | viscosity ([1]; 308.15 K) [mPa·s] | mass density ([1]; 308.15 K) [kg/m3] | viscosity ([1]; 313.15 K) [mPa·s] | mass density ([1]; 313.15 K) [kg/m3] | viscosity ([1]; 318.15 K) [mPa·s] | mass density ([1]; 318.15 K) [kg/m3] | viscosity ([1]; 323.15 K) [mPa·s] | mass density ([1]; 323.15 K) [kg/m3] | viscosity ([2]; 293.15 K, x2 = 0) [mPa·s] | mass density ([2]; 293.15 K, x2 = 0) [kg/m3] | viscosity ([2]; 298.15 K, x2 = 0) [mPa·s] | mass density ([2]; 298.15 K, x2 = 0) [kg/m3] | viscosity ([2]; 303.15 K, x2 = 0) [mPa·s] | mass density ([2]; 303.15 K, x2 = 0) [kg/m3] | further results |
| --- | --- | --- | --- | --- | --- | --- | --- | --- | --- | --- | --- | --- | --- | --- | --- | --- | --- | --- | --- | --- | --- |
| CCCCCCO [hexan-1-ol] | 5.37 ± 0.27 | 818.7 ± 20 | 4.58 ± 0.23 | 815.1 ± 20 | 3.94 ± 0.2 | 811.5 ± 20 | 3.4 ± 0.17 | 807.9 ± 20 | 2.95 ± 0.15 | 804.2 ± 20 | 2.58 ± 0.13 | 800.6 ± 20 | 2.26 ± 0.11 | 796.8 ± 20 |  |  |  |  |  |  |  |
| O=C1CCCCC1 [cyclohexanone] + CCCCCCCCCO |  |  |  |  |  |  |  |  |  |  |  |  |  |  |  |  |  |  |  |  | viscosity ([2]; 293.15 K, x1 = 1): 2.3 ± 0.12 mPa·s; mass density ([2]; 293.15 K, x1 = 1): 948.8 ± 20 kg/m3; viscosity ([2]; 298.15 K, x1 = 1): 2.09 ± 0.11 mPa·s; mass density ([2]; 298.15 K, x1 = 1): 943.1 ± 20 kg/m3; viscosity ([2]; 303.15 K, x1 = 1): 1.91 ± 0.1 mPa·s; mass density ([2]; 303.15 K, x1 = 1): 938.2 ± 20 kg/m3; viscosity ([2]; 308.15 K, x1 = 1): 1.75 ± 0.09 mPa·s; mass density ([2]; 308.15 K, x1 = 1): 933.5 ± 20 kg/m3; viscosity ([2]; 313.15 K, x1 = 1): 1.6 ± 0.08 mPa·s; mass density ([2]; 313.15 K, x1 = 1): 928.8 ± 20 kg/m3; viscosity ([2]; 318.15 K, x1 = 1): 1.46 ± 0.07 mPa·s; mass density ([2]; 318.15 K, x1 = 1): 924.4 ± 20 kg/m3; viscosity ([2]; 323.15 K, x1 = 1): 1.34 ± 0.07 mPa·s; mass density ([2]; 323.15 K, x1 = 1): 920.7 ± 20 kg/m3 |
| CCCCCO [pentan-1-ol] + O=C1CCCCC1 |  |  |  |  |  |  |  |  |  |  |  |  |  |  | 4.03 ± 0.2 | 814.5 ± 20 | 3.49 ± 0.18 | 810.8 ± 20 | 3.04 ± 0.15 | 807.1 ± 20 | viscosity ([2]; 308.15 K, x2 = 0): 2.65 ± 0.13 mPa·s; mass density ([2]; 308.15 K, x2 = 0): 803.3 ± 20 kg/m3; viscosity ([2]; 313.15 K, x2 = 0): 2.32 ± 0.12 mPa·s; mass density ([2]; 313.15 K, x2 = 0): 799.6 ± 20 kg/m3; viscosity ([2]; 318.15 K, x2 = 0): 2.05 ± 0.1 mPa·s; mass density ([2]; 318.15 K, x2 = 0): 795.8 ± 20 kg/m3; viscosity ([2]; 323.15 K, x2 = 0): 1.81 ± 0.09 mPa·s; mass density ([2]; 323.15 K, x2 = 0): 792 ± 20 kg/m3 |
| O=C1CCCCC1 [cyclohexanone] | 2.3 ± 0.12 | 948.8 ± 20 | 2.09 ± 0.11 | 943.1 ± 20 | 1.91 ± 0.1 | 938.2 ± 20 | 1.75 ± 0.09 | 933.5 ± 20 | 1.6 ± 0.08 | 928.8 ± 20 | 1.46 ± 0.07 | 924.4 ± 20 | 1.34 ± 0.07 | 920.7 ± 20 |  |  |  |  |  |  |  |
| CCCCCCCCCCO [decan-1-ol] + O=C1CCCCC1 |  |  |  |  |  |  |  |  |  |  |  |  |  |  | 14.42 ± 0.72 | 829.5 ± 20 | 11.8 ± 0.59 | 826.1 ± 20 | 9.76 ± 0.49 | 822.7 ± 20 | viscosity ([2]; 308.15 K, x2 = 0): 8.14 ± 0.41 mPa·s; mass density ([2]; 308.15 K, x2 = 0): 819.3 ± 20 kg/m3; viscosity ([2]; 313.15 K, x2 = 0): 6.84 ± 0.34 mPa·s; mass density ([2]; 313.15 K, x2 = 0): 815.8 ± 20 kg/m3; viscosity ([2]; 318.15 K, x2 = 0): 5.8 ± 0.29 mPa·s; mass density ([2]; 318.15 K, x2 = 0): 812.4 ± 20 kg/m3; viscosity ([2]; 323.15 K, x2 = 0): 4.96 ± 0.25 mPa·s; mass density ([2]; 323.15 K, x2 = 0): 808.9 ± 20 kg/m3 |
| CCCCCCCCCCO [decan-1-ol] | 14.42 ± 0.72 | 829.5 ± 20 | 11.8 ± 0.59 | 826.1 ± 20 | 9.76 ± 0.49 | 822.7 ± 20 | 8.14 ± 0.41 | 819.3 ± 20 | 6.84 ± 0.34 | 815.8 ± 20 | 5.8 ± 0.29 | 812.4 ± 20 | 4.96 ± 0.25 | 808.9 ± 20 |  |  |  |  |  |  |  |
| CCCCCCCCCO [nonan-1-ol] | 11.41 ± 0.57 | 827.5 ± 20 | 9.43 ± 0.47 | 824 ± 20 | 7.86 ± 0.39 | 820.5 ± 20 | 6.61 ± 0.33 | 817.1 ± 20 | 5.6 ± 0.28 | 813.6 ± 20 | 4.78 ± 0.24 | 810.1 ± 20 | 4.1 ± 0.21 | 806.5 ± 20 |  |  |  |  |  |  |  |
| O=C1CCCCC1 [cyclohexanone] + CCCCCCCO |  |  |  |  |  |  |  |  |  |  |  |  |  |  |  |  |  |  |  |  | viscosity ([2]; 293.15 K, x1 = 1): 2.3 ± 0.12 mPa·s; mass density ([2]; 293.15 K, x1 = 1): 948.8 ± 20 kg/m3; viscosity ([2]; 298.15 K, x1 = 1): 2.09 ± 0.11 mPa·s; mass density ([2]; 298.15 K, x1 = 1): 943.1 ± 20 kg/m3; viscosity ([2]; 303.15 K, x1 = 1): 1.91 ± 0.1 mPa·s; mass density ([2]; 303.15 K, x1 = 1): 938.2 ± 20 kg/m3; viscosity ([2]; 308.15 K, x1 = 1): 1.75 ± 0.09 mPa·s; mass density ([2]; 308.15 K, x1 = 1): 933.5 ± 20 kg/m3; viscosity ([2]; 313.15 K, x1 = 1): 1.6 ± 0.08 mPa·s; mass density ([2]; 313.15 K, x1 = 1): 928.8 ± 20 kg/m3; viscosity ([2]; 318.15 K, x1 = 1): 1.46 ± 0.07 mPa·s; mass density ([2]; 318.15 K, x1 = 1): 924.4 ± 20 kg/m3; viscosity ([2]; 323.15 K, x1 = 1): 1.34 ± 0.07 mPa·s; mass density ([2]; 323.15 K, x1 = 1): 920.7 ± 20 kg/m3 |
| CCCCCCCCO [octan-1-ol] + O=C1CCCCC1 |  |  |  |  |  |  |  |  |  |  |  |  |  |  | 9.13 ± 0.46 | 824.9 ± 20 | 7.62 ± 0.38 | 821.4 ± 20 | 6.41 ± 0.32 | 817.9 ± 20 | viscosity ([2]; 308.15 K, x2 = 0): 5.43 ± 0.27 mPa·s; mass density ([2]; 308.15 K, x2 = 0): 814.4 ± 20 kg/m3; viscosity ([2]; 313.15 K, x2 = 0): 4.63 ± 0.23 mPa·s; mass density ([2]; 313.15 K, x2 = 0): 810.9 ± 20 kg/m3; viscosity ([2]; 318.15 K, x2 = 0): 3.98 ± 0.2 mPa·s; mass density ([2]; 318.15 K, x2 = 0): 807.3 ± 20 kg/m3; viscosity ([2]; 323.15 K, x2 = 0): 3.4 ± 0.17 mPa·s; mass density ([2]; 323.15 K, x2 = 0): 803.7 ± 20 kg/m3 |
| CCCCCO [pentan-1-ol] | 4.03 ± 0.2 | 814.5 ± 20 | 3.49 ± 0.18 | 810.8 ± 20 | 3.04 ± 0.15 | 807.1 ± 20 | 2.65 ± 0.13 | 803.3 ± 20 | 2.32 ± 0.12 | 799.6 ± 20 | 2.05 ± 0.1 | 795.8 ± 20 | 1.81 ± 0.09 | 792 ± 20 |  |  |  |  |  |  |  |
| CCCCCCCO [heptan-1-ol] | 7.03 ± 0.35 | 822.2 ± 20 | 5.92 ± 0.3 | 818.7 ± 20 | 5.03 ± 0.25 | 815.2 ± 20 | 4.3 ± 0.22 | 811.6 ± 20 | 3.71 ± 0.19 | 808 ± 20 | 3.21 ± 0.16 | 804.4 ± 20 | 2.79 ± 0.14 | 800.7 ± 20 |  |  |  |  |  |  |  |
| CCCCCCO [hexan-1-ol] + O=C1CCCCC1 |  |  |  |  |  |  |  |  |  |  |  |  |  |  | 5.37 ± 0.27 | 818.7 ± 20 | 4.58 ± 0.23 | 815.1 ± 20 | 3.94 ± 0.2 | 811.5 ± 20 | viscosity ([2]; 308.15 K, x2 = 0): 3.4 ± 0.17 mPa·s; mass density ([2]; 308.15 K, x2 = 0): 807.9 ± 20 kg/m3; viscosity ([2]; 313.15 K, x2 = 0): 2.95 ± 0.15 mPa·s; mass density ([2]; 313.15 K, x2 = 0): 804.2 ± 20 kg/m3; viscosity ([2]; 318.15 K, x2 = 0): 2.58 ± 0.13 mPa·s; mass density ([2]; 318.15 K, x2 = 0): 800.6 ± 20 kg/m3; viscosity ([2]; 323.15 K, x2 = 0): 2.26 ± 0.11 mPa·s; mass density ([2]; 323.15 K, x2 = 0): 796.8 ± 20 kg/m3 |
| CCCCCCCCO [octan-1-ol] | 9.13 ± 0.46 | 824.9 ± 20 | 7.62 ± 0.38 | 821.4 ± 20 | 6.41 ± 0.32 | 817.9 ± 20 | 5.43 ± 0.27 | 814.4 ± 20 | 4.63 ± 0.23 | 810.9 ± 20 | 3.98 ± 0.2 | 807.3 ± 20 | 3.4 ± 0.17 | 803.7 ± 20 |  |  |  |  |  |  |  |
